# “Also recorded” adds a separate entry of the source.
# How the values were obtained:
# [1] = tested on: neuromyelitis optica (NMO) patient; experiment: Case report of off-label treatment of NMO patient with cladribine; assay type: in vivo, human
# Description: A person presented with acute visual symptoms and optic neuritis with normal head MRI. Episodic visual symptoms recurred with increasing severity up to complete blindness in one eye and episodes of deterioration in the other. Some response to methylprednisolone was noted. The diagnostic test for NMO-IgG (ELISA) was positive and brain MRI had no focal lesions.
# 20 mg of cladribine were administered subcutaneously to the patient on each of five dosing days, with one month or more separating the dosing days. On a dosing day, two vials were used each containing 10 ml of a solution of cladribine as shown in Example 2. Eight subcutaneous sites were used, each receiving an injection of 2.5 ml.
# At the end of nine months blindness was complete bilaterally but motor and sensory functions were normal. […] After 2 years the patient was admitted with motor, sensory and autonomic symptoms. Based on new symptoms, abnormalities on spinal cord MRI and the previous NMO-IgG test the diagnosis was confirmed as neuromyelitis optica. After 3 months there was partial improvement but remaining mild paraparesis.
# Prior to cladribine treatment this patient experienced five episodes of worsening over four years (estimated annual relapse rate of 1.46). The intervening remission periods were 13, 15, 6 and 6 months. From initiation of an 8-month course of cladribine treatment they experienced 34 months of stable condition without reported relapses, followed by subsequent deterioration and other treatments.
# [2] = tested on: T-lymphocytes from NMO patients; experiment: In vitro viability response of lymphocytes derived from NMO patients to cladribine; assay type: cell-based, human; conditions: cladribine 1×10^−9M to 1×10^−4M, e.g. four days; with or without anti-CD3/anti-CD28; compared with healthy donors
# Description: Using the methods described in Laugel B. et al., J. Neuroimmunol.; (2011); 240-241; 52-57 peripheral blood mononuclear cells (PBMCs) are first isolated from blood obtained from healthy donors and NMO patients, for example by ficoll gradient centrifugation. T-lymphocytes are further purified from these PBMCs, by for example magnetic bead separation using a pan-T cell reagents, or CD4 reagents. […] To determine the cells' viability response to cladribine, identical numbers of lymphocytes purified from both healthy donor and NMO patients are cultured with one of a number of cladribine concentrations, ranging from for example one nanomolar to one hundred micromolar (1×10^−9M to 1×10^−4M), or without any cladribine. After a period of several days, for example four days, the fraction of live cells is determined, for example by annexin V staining or trypan blue staining. This experiment is done either under stimulated conditions (that is, with the addition of anti-CD3 and anti-CD28 antibodies in all cultures, as below) or without these stimulating antibodies.
# [3] = tested on: T lymphocytes from NMO patients; experiment: Stimulated (anti-CD3/anti-CD28) cytokine secretion by T lymphocytes from NMO patients; assay type: cell-based, human; conditions: cladribine 1×10^−9M to 1×10^−4M, supernatants e.g. 24 hours, compared with healthy donors
# Description: Using the methods described in Laugel B. et al., J. Neuroimmunol.; (2011); 240-241; 52-57 peripheral blood mononuclear cells (PBMCs) are first isolated from blood obtained from healthy donors and NMO patients, for example by ficoll gradient centrifugation. T-lymphocytes are further purified from these PBMCs, by for example magnetic bead separation using a pan-T cell reagents, or CD4 reagents. The purified lymphocytes are maintained in culture using standard methods and reagents, for example RPMI-1640 growth medium.
# To determine the effect of cladribine on stimulated cytokine secretion by T lymphocytes from NMO patients, identical numbers of purified lymphocytes purified from both healthy donor and NMO patients are pre-incubated for less than one hour in medium containing one of a number of cladribine concentrations, ranging from for example one nanomolar to one hundred micromolar (1×10^−9M to 1×10^−4M), or without added cladribine. Cells are then transferred, with their cladribine-containing or control medium, to the wells of culture plates coated with anti-CD3 antibody, and soluble anti-CD28 antibody is added. Secreted cytokines in culture supernatants collected after, for example, 24 hours, are determined by one of several standard methods including bead-based cytometric cytokine assay and enzyme-linked immunosorbent assay. […]
# [4] = target: A2A (adenosine receptor class 2a) (Homo sapiens, UniProt P29274); conditions: cited from earlier work
# [5] = tested on: human lymphocytes; conditions: phosphorylation by CK blocked, lymphocyte death does not occur; cited from earlier work
# [6] = tested on: IgM associated inflammatory peripheral neuropathy patient; conditions: intravenous infusion, two courses of cladribine, cited from earlier work
# [7] = tested on: NMO patients; conditions: cited from earlier work
# A2A (adenosine receptor class 2a), sequence (P29274 whole entry): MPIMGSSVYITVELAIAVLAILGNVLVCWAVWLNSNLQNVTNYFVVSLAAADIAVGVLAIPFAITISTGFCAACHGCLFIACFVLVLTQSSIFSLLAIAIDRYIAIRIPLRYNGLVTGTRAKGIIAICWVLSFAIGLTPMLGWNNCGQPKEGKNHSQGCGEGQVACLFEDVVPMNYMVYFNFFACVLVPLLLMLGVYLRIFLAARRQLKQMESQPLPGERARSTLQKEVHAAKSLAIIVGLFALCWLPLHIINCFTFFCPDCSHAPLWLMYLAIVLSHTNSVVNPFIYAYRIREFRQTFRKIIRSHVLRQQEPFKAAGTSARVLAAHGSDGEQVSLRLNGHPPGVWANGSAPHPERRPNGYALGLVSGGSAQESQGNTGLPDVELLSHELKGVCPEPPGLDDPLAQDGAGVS
compound,measurement,setting,value
"Nc1nc(Cl)nc2c1ncn2[C@H]1C[C@H](O)[C@@H](CO)O1 [cladribine, 2-chloro-2′-deoxyadenosine]",disease course after cladribine treatment,"[1]; one NMO patient, single course 100 mg s.c., no further immunosuppressant treatment",two years without noted deterioration; also recorded: stabilization of the disease course for over two years
same,adverse events attributed to cladribine,"[1]; one NMO patient, total 100 mg cladribine s.c.",No adverse events attributed to cladribine were reported
same,stable condition without reported relapses,"[1]; one NMO patient, total 100 mg cladribine s.c., from initiation of an 8-month course",34 months
same,period of beneficial effects on the disease without retreatment,[1]; short period of treatment (several weeks),over 18 months
same,viability (fraction of live cells) of lymphocytes from NMO patients,[2],die over several days in a manner and to an extent similar to those purified from healthy donors
same,secretion of cytokines by lymphocytes from NMO patients,[3],inhibited by cladribine in a manner and to a degree similar to the inhibition seen in lymphocytes from healthy donors
same,affinity at A2A receptors,[4],binds with high affinity
same,induced cytokine production,[5],decreased
same,IgM antibody levels,[6],IgM levels declined slowly over a period of more than one year
same,symptoms,[6]; maintained for several years,symptomatic improvement
O=C1c2c(O)ccc(O)c2C(=O)c2c(NCCNCCO)ccc(NCCNCCO)c21 [mitoxantrone],disease course under mitoxantrone,"[1]; same patient, after relapse following cladribine, impaired walking, neurogenic bladder, blindness",progressive deterioration
Glatiramer acetate,effect on NMO,[7],has not been found to be effective

# Reference: patent publication US10350231B2, “Use of cladribine for treating autoimmune inflammatory disease” (Chord Therapeutics S.a.r.l., priority 2014, dated 2019)
